Reference: US20250235543A1, “MODIFIED PROTEINS AND PROTEIN DEGRADERS” (Cullgen (Shanghai), Inc., priority 2021, published 2025)
Read-outs that look alike come from different tables or passages of the source.

Legend:
cyclin D1 = test: Cyclin D1 percentage degradation in Calu-1 cells (immunoblotting); assay type: cell-based; settings: 200 nM, 16 hours
Method in brief: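 Cyclin D1 degradation was assessed by western blot. Clarified lysates, obtained by RIPA lysis with inhibitors and centrifugation at 13,000 rpm, were normalized by BCA protein assay and separated by SDS-PAGE. Bands were detected with Western ECL Substrate on a Bio-Rad ChemiDoc MP Imaging system and quantified in Image Lab software to derive percentage degradation.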

CDK4 = biological target: T1, CDK4 (Homo sapiens, UniProt P11802); test: CDK4 percentage degradation in Calu-1 cells (immunoblotting); assay type: cell-based; settings: read-out: CDK4 Degradation (200 nM)
T1 construct: endogenous in cells; host or cells: Calu-1
T1 sequence (P11802 2-303 limits assumed): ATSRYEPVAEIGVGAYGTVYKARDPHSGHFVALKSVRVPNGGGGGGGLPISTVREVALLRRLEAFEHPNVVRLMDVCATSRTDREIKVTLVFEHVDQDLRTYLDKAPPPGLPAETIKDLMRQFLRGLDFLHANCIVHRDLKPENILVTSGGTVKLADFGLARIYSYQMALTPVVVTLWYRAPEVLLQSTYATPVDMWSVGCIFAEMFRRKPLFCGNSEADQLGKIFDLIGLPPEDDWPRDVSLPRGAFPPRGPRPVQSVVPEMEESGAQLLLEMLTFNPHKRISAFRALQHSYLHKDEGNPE
T1 sequence (P24385 whole entry partner): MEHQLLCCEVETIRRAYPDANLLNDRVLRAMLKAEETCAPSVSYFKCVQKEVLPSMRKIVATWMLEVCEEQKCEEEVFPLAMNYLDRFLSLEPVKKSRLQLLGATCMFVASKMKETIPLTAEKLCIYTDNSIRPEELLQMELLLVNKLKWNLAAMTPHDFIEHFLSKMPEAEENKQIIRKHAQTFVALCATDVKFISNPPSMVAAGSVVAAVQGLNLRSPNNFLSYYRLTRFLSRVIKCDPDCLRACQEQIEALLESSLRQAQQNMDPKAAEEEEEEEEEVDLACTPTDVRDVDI
T1 sequence (Q16531 2-1140 limits assumed, further chain): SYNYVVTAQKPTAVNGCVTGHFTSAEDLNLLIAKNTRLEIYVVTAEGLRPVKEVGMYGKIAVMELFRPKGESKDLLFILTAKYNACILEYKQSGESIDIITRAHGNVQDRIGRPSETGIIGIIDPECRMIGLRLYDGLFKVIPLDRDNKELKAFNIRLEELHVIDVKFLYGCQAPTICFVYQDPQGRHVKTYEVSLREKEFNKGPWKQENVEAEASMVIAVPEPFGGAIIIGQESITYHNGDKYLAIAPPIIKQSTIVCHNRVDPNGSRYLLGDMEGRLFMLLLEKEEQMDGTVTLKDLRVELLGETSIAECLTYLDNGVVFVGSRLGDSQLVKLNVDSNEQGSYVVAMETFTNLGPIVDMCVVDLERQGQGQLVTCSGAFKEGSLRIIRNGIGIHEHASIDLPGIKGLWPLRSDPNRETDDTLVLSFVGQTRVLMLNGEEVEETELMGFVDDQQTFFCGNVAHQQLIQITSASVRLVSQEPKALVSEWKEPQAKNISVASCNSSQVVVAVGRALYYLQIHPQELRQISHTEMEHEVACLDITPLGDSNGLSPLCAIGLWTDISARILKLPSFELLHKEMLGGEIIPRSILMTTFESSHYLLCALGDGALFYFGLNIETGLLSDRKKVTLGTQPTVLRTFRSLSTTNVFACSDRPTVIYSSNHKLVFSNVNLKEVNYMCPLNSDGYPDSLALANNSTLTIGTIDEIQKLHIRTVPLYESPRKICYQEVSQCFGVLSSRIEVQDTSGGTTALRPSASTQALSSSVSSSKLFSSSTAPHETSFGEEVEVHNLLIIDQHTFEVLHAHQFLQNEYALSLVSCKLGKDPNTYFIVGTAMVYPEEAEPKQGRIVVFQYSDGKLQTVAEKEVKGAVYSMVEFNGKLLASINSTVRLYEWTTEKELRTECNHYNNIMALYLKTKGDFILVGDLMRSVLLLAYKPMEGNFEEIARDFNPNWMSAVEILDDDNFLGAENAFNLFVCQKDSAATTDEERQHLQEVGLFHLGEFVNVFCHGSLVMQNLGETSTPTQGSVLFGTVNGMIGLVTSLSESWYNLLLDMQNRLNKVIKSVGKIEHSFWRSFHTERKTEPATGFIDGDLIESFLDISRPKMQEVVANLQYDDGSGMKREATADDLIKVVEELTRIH
Method in brief: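 CDK4 degradation was measured by immunoblotting. Cells were washed in cold PBS and lysed in RIPA buffer with inhibitors for 30 min at 4° C., then spun at 13,000 rpm to clear. After BCA protein determination, lysates were heated at 99° C. for 5 min in Laemmli buffer, resolved on SDS-PAGE, imaged on a ChemiDoc MP with ECL substrate, and band intensities quantified.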

| inhibition at 0.2 µM (CDK4; Calu-1 cells, 200 nM, 16 hours) | SMILES | CyclinD1 Degradation (200 nM) (cyclin D1) | inhibition at 0.2 µM (CDK4; Calu-1, 16 h) |
| --- | --- | --- | --- |
| 50 to 80% | CNc1ccc(C(=O)Nc2ccc(C)c(C3CC3)n2)c(NCCCCCNC(=O)CN2CCN(c3ccc(Nc4ncc5c(C)c(C(C)=O)c(=O)n(C6CCCC6)c5n4)nc3)CC2)c1 [CPD-371, 2-((5-(2-(4-(6-((6-Acetyl-8-cyclopentyl-5-methyl-7-oxo-7,8-dihydropyrido[2,3-d]pyrimidin-2-yl)amino)pyridin-3-yl)piperazin-1-yl)acetamido)pentyl)amino)-N-(6-cyclopropyl-5-methylpyridin-2-yl)-4-(methylamino)benzamide] | A (protein percentage degradation >=80%) | – |
| 50 to 80% | CC(=O)c1c(C)c2cnc(Nc3ccc(N4CCN(CC(=O)NCCCCCCNc5cccc(C(=O)Nc6nc(C)c(C)s6)c5C)CC4)cn3)nc2n(C2CCCC2)c1=O [CPD-101, 3-((6-(2-(4-(6-((6-Acetyl-8-cyclopentyl-5-methyl-7-oxo-7,8-dihydropyrido[2,3-d]pyrimidin-2-yl)amino)pyridin-3-yl)piperazin-1-yl)acetamido)hexyl)amino)-N-(4,5-dimethylthiazol-2-yl)-2-methylbenzamide] | A (protein percentage degradation >=80%) | – |
| 50 to 80% | CC(=O)c1c(C)c2cnc(Nc3ccc(N4CCN(CC(=O)NCCOCCOCCCNc5ccccc5C(=O)Nc5nc(C)c(C)s5)CC4)cn3)nc2n(C2CCCC2)c1=O [CPD-267, 2-((3-(2-(2-(2-(4-(6-((6-Acetyl-8-cyclopentyl-5-methyl-7-oxo-7,8-dihydropyrido[2,3-d]pyrimidin-2-yl)amino)pyridin-3-yl)piperazin-1-yl)acetamido)ethoxy)ethoxy)propyl)amino)-N-(4,5-dimethylthiazol-2-yl)benzamide] | A (protein percentage degradation >=80%) | – |
| > 80% | CC(=O)c1c(C)c2cnc(Nc3ccc(N4CCN(CC(=O)NCCOCCOCCC(=O)Nc5ccccc5C(=O)Nc5ccc(Cl)cn5)CC4)cn3)nc2n(C2CCCC2)c1=O [CPD-082, 2-(3-(2-(2-(2-(4-(6-((6-Acetyl-8-cyclopentyl-5-methyl-7-oxo-7,8-dihydropyrido[2,3-d]pyrimidin-2-yl)amino)pyridin-3-yl)piperazin-1-yl)acetamido)ethoxy)ethoxy)propanamido)-N-(5-chloropyridin-2-yl)benzamide] | A (protein percentage degradation >=80%) | – |
| > 80% | CC(=O)c1c(C)c2cnc(Nc3ccc(N4CCN(CC(=O)NCCOCCOCCC(=O)Nc5cc(C)ccc5C(=O)Nc5nc(C)c(C)s5)CC4)cn3)nc2n(C2CCCC2)c1=O [CPD-149, 2-(3-(2-(2-(2-(4-(6-((6-Acetyl-8-cyclopentyl-5-methyl-7-oxo-7,8-dihydropyrido[2,3-d]pyrimidin-2-yl)amino)pyridin-3-yl)piperazin-1-yl)acetamido)ethoxy)ethoxy)propanamido)-N-(4,5-dimethylthiazol-2-yl)-4-methylbenzamide] | A (protein percentage degradation >=80%) | – |
| < 30% | CC(=O)c1c(C)c2cnc(Nc3ccc(N4CCN(CC(=O)NCCOCCOCCOCCOCCOCCNC(=O)COc5ccc(C(=O)Nc6ncc(C)s6)c(C)c5)CC4)cn3)nc2n(C2CCCC2)c1=O [CPD-019, 4-((23-(4-(6-((6-Acetyl-8-cyclopentyl-5-methyl-7-oxo-7,8-dihydropyrido[2,3-d]pyrimidin-2-yl)amino)pyridin-3-yl)piperazin-1-yl)-2,22-dioxo-6,9,12,15,18-pentaoxa-3,21-diazatricosyl)oxy)-2-methyl-N-(5-methylthiazol-2-yl)benzamide] | D (protein percentage degradation <30%) | – |

Continued, compound first:

| SMILES | inhibition at 0.2 µM (CDK4; Calu-1 cells, 200 nM, 16 hours) | CyclinD1 Degradation (200 nM) (cyclin D1) | inhibition at 0.2 µM (CDK4; Calu-1, 16 h) |
| --- | --- | --- | --- |
| CC(=O)c1c(C)c2cnc(Nc3ccc(N4CCN(C(=O)CCCCCCCNc5cccc(C(=O)Nc6nc(C)c(C)s6)c5C)CC4)cn3)nc2n(C2CCCC2)c1=O [CPD-125, 3-((8-(4-(6-((6-Acetyl-8-cyclopentyl-5-methyl-7-oxo-7,8-dihydropyrido[2,3-d]pyrimidin-2-yl)amino)pyridin-3-yl)piperazin-1-yl)-8-oxooctyl)amino)-N-(4,5-dimethylthiazol-2-yl)-2-methylbenzamide] | – | D (protein percentage degradation <30%) | < 30% |
| CC(=O)c1c(C)c2cnc(Nc3ccc(N4CCN(CCNCCOCCOCCNc5cccc(C(=O)Nc6nc(C)c(C)s6)c5C)CC4)cn3)nc2n(C2CCCC2)c1=O [CPD-086, 3-((2-(2-(2-((2-(4-(6-((6-Acetyl-8-cyclopentyl-5-methyl-7-oxo-7,8-dihydropyrido[2,3-d]pyrimidin-2-yl)amino)pyridin-3-yl)piperazin-1-yl)ethyl)amino)ethoxy)ethoxy)ethyl)amino)-N-(4,5-dimethylthiazol-2-yl)-2-methylbenzamide] | – | D (protein percentage degradation <30%) | < 30% |
| CC(=O)c1c(C)c2cnc(Nc3ccc(N4CCN(C(=O)CCOCCOCCOCCOCCOCCNc5ccc(C)c(C(=O)Nc6nc(C)c(C)s6)c5)CC4)cn3)nc2n(C2CCCC2)c1=O [CPD-134, 5-((18-(4-(6-((6-Acetyl-8-cyclopentyl-5-methyl-7-oxo-7,8-dihydropyrido[2,3-d]pyrimidin-2-yl)amino)pyridin-3-yl)piperazin-1-yl)-18-oxo-3,6,9,12,15-pentaoxaoctadecyl)amino)-N-(4,5-dimethylthiazol-2-yl)-2-methylbenzamide] | – | D (protein percentage degradation <30%) | < 30% |
| CC(=O)c1c(C)c2cnc(Nc3ccc(N4CCN(C(=O)CNc5ccc(C)c(C(=O)Nc6nc(C)c(C)s6)c5)CC4)cn3)nc2n(C2CCCC2)c1=O [CPD-135, 5-((2-(4-(6-((6-Acetyl-8-cyclopentyl-5-methyl-7-oxo-7,8-dihydropyrido[2,3-d]pyrimidin-2-yl)amino)pyridin-3-yl)piperazin-1-yl)-2-oxoethyl)amino)-N-(4,5-dimethylthiazol-2-yl)-2-methylbenzamide] | – | D (protein percentage degradation <30%) | < 30% |
| CC(=O)c1c(C)c2cnc(Nc3ccc(N4CCN(CCCCCOCCOCCNc5cccc(C(=O)Nc6nc(C)c(C)s6)c5C)CC4)cn3)nc2n(C2CCCC2)c1=O [CPD-271, 3-((2-(2-((5-(4-(6-((6-Acetyl-8-cyclopentyl-5-methyl-7-oxo-7,8-dihydropyrido[2,3-d]pyrimidin-2-yl)amino)pyridin-3-yl)piperazin-1-yl)pentyl)oxy)ethoxy)ethyl)amino)-N-(4,5-dimethylthiazol-2-yl)-2-methylbenzamide] | – | D (protein percentage degradation <30%) | < 30% |
| CC(=O)c1c(C)c2cnc(Nc3ccc(N4CCN(C(=O)CCCC(=O)Nc5ccccc5C(=O)Nc5nc(C)c(C)s5)CC4)cn3)nc2n(C2CCCC2)c1=O [CPD-159, 2-(5-(4-(6-((6-Acetyl-8-cyclopentyl-5-methyl-7-oxo-7,8-dihydropyrido[2,3-d]pyrimidin-2-yl)amino)pyridin-3-yl)piperazin-1-yl)-5-oxopentanamido)-N-(4,5-dimethylthiazol-2-yl)benzamide] | – | D (protein percentage degradation <30%) | 30 to 50% |
